This is an account of results in patent publication US12503436B2, “Compounds and compositions for treating conditions associated with STING activity” (NOVARTIS PHARMA AG, priority 2021, dated 2025).

For orientation: EC50 means the concentration needed to bring the measured effect to its halfway point.

STING, sequence (Q86WV6 whole entry R71H/G230A/H232R/R293Q): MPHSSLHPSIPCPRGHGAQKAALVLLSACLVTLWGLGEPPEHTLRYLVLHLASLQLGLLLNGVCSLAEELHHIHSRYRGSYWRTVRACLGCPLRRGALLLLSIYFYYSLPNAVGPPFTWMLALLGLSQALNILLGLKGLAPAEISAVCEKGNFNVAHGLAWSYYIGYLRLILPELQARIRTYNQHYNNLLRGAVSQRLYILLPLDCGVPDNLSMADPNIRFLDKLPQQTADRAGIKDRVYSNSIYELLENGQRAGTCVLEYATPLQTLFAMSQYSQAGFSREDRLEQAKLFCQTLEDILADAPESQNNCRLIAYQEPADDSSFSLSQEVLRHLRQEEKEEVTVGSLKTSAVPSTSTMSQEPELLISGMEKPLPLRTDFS

The experiment has as its target STING (Homo sapiens, UniProt Q86WV6, G230A/H232R/R293Q/R71H). Put plainly: STING reporter assay in THP1-Dual KO-IFNAR2 cells (2′3′cGAMP stimulation, luciferase reporter). The note with it: 15 μM 2′3′cGAMP stimulation, 24 h, read-out: Pharmaron, THP1_IFNAR2 STING 24 h Luci Normalized: GeoMean EC50. It is filed as cell-based. The method in brief: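 EC50 from secreted luciferase (QUANTI-Luc Plus luminescence of supernatant) after 24 h at 37 °C, 5% CO2. Cells: THP1-Dual KO-IFNAR2, treated with compound (0.0017-100 μM final) plus lipofected 2′3′cGAMP at 15 μM final.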
(In a reporter assay the amount or activity of a reporter protein is the signal.)
Take `CC(=O)Nc1c[nH]c2ccc(CCOc3cccnc3)cc12` [Compound 581, N-(5-(2-(pyridin-3-yloxy)ethyl)-1H-indol-3-yl)acetamide]: the EC50 lay within 5000 to 100000 nM. Turning to `CC(=O)Nc1c[nH]c2ccc(OCCC3CCN(CC(F)(F)F)CC3)cc12` [Compound 122, N-(5-(2-(1-(2,2,2-trifluoroethyl)piperidin-4-yl)ethoxy)-1H-indol-3-yl)acetamide], the EC50 lay within 200 to 1000 nM.

Take `CC(=O)Nc1c[nH]c2ccc(OCCC3CC4(C3)CN(CC(F)(F)F)C4)cc12` [Compound 171, N-(5-(2-(2-(2,2,2-trifluoroethyl)-2-azaspiro[3.3]heptan-6-yl)ethoxy)-1H-indol-3-yl)acetamide]: the concentration giving a half-maximal response (EC50) was 1000 to 5000 nM. `COCC(=O)Nc1c[nH]c2ccc(O[C@H]3C[C@@H](c4ccc(C(F)(F)F)cc4)C3)cc12` [Compound 260, 2-methoxy-N-(5-(cis-3-(4-(trifluoromethyl)phenyl)cyclobutoxy)-1H-indol-3-yl)acetamide]: the concentration giving a half-maximal response (EC50) lay in the range of 200 to 1000 nM. With `CC(=O)Nc1c[nH]c2cc(Br)c(OCCc3ccc(C(F)(F)F)cc3)cc12` [Compound 173, N-(6-bromo-5-(4-(trifluoromethyl)phenethoxy)-1H-indol-3-yl)acetamide] the figure was 5000 to 100000 nM; with `CC(=O)Nc1c[nH]c2ccc(CCOc3ccc(C4(C)CCN(CC(F)(F)F)CC4)cc3)cc12` [Compound 198, N-(5-(2-(4-(4-methyl-1-(2,2,2-trifluoroethyl)piperidin-4-yl)phenoxy)ethyl)-1H-indol-3-yl)acetamide], 200 to 1000 nM. The figure for `O=C(Nc1c[nH]c2ccc(O[C@H]3C[C@@H](c4ccc(C(F)(F)F)cc4)C3)cc12)C1CCOCC1` [Compound 365, N-(5-(cis-3-(4-(trifluoromethyl)phenyl)cyclobutoxy)-1H-indol-3-yl)tetrahydro-2H-pyran-4-carboxamide] is 40 to 200 nM; for `C[C@@H]1OC[C@H]1C(=O)Nc1c[nH]c2ccc(O[C@H]3C[C@H](c4ccc(C(F)(F)F)cc4)C3)cc12` [Compound 423, (2S,3R)-2-methyl-N-(5-(trans-3-(4-(trifluoromethyl)phenyl)cyclobutoxy)-1H-indol-3-yl)oxetane-3-carboxamide] it is 200 to 1000 nM. The figure for `COC1CC(C(=O)Nc2c[nH]c3ccc(OCc4ccc(C(F)(F)F)cc4)cc23)C1` (stereo not shown) [Compound 352, 3-methoxy-N-(5-((4-(trifluoromethyl)benzyl)oxy)-1H-indol-3-yl)cyclobutane-1-carboxamide] is 40 to 200 nM. Consider `CC(C)(C)OC(=O)N1CC(C(=O)Nc2c[nH]c3ccc(O[C@H]4C[C@H](c5ccc(C(F)(F)F)cc5)C4)cc23)C1` [Compound 466, tert-butyl 3-((5-(trans-3-(4-(trifluoromethyl)phenyl)cyclobutoxy)-1H-indol-3-yl)carbamoyl)azetidine-1-carboxylate], for which the EC50 was in the range of 200 to 1000 nM. As for `CC1(C(=O)Nc2c[nH]c3ccc(OC[C@@H]4C[C@H]5CC[C@@H](C4)N5CC(F)(F)F)cc23)COC1` [Compound 485, 3-methyl-N-(5-(((1R,3s,5S)-8-(2,2,2-trifluoroethyl)-8-azabicyclo[3.2.1]octan-3-yl)methoxy)-1H-indol-3-yl)oxetane-3-carboxamide], the EC50 is 1000 to 5000 nM. As to `COCC1(C(=O)Nc2c[nH]c3ccc(OCC[C@@H]4C[C@@H]5CN(CC(F)(F)F)C[C@@H]5C4)cc23)CC1` [Compound 305, 1-(methoxymethyl)-N-(5-(2-((3aR,5r,6aS)-2-(2,2,2-trifluoroethyl)octahydrocyclopenta[c]pyrrol-5-yl)ethoxy)-1H-indol-3-yl)cyclopropane-1-carboxamide], the EC50 lay within 1000 to 5000 nM. Consider `O=C(Nc1c[nH]c2ccc(OCC[C@@H]3C[C@@H]4CN(CC(F)(F)F)C[C@@H]4C3)cc12)C1(C(F)(F)F)CC1` [Compound 366, N-(5-(2-((3aR,5r,6aS)-2-(2,2,2-trifluoroethyl)octahydrocyclopenta[c]pyrrol-5-yl)ethoxy)-1H-indol-3-yl)-1-(trifluoromethyl)cyclopropane-1-carboxamide], for which the EC50 was in the range of 200 to 1000 nM.
